Test results published in ChEMBL document CHEMBL3046467, “Structure-activity relationship of carboxin-related carboxamides as fungicide” (2011).

Experiments:
Format in all cases: functional
[1] = test system: Puccinia recondita; experiment: Fungicidal activity against Puccinia recondita spores inoculated on leaves of compound pre-treated 1.5 leaf-stage wheat plants assessed as wheat brown rust disease control level at 250 ppm measured after 8 days post fungal inoculation
[2] = test system: Botrytis cinerea; experiment: Fungicidal activity against Botryotinia fuckeliana spores inoculated on leaves of compound pre-treated seed-leaf stage kidney beans assessed as gray mold disease control level at 62.5 ppm measured after 4 days post fungal inoculation
[3] = test system: Pyricularia grisea; experiment: Fungicidal activity against Magnaporthe grisea spores inoculated on leaves of compound pre-treated 2 or 3 leaf-stage rice plants assessed as rice blast disease control level at 250 ppm measured after 7 days post fungal inoculation
[4] = test system: Podosphaera xanthii; experiment: Fungicidal activity against Podosphaera xanthii (powdery mildew) spores inoculated on leaves of compound pre-treated 1.5 leaf-stage cucumber plants assessed as powdery mildew disease control level at 25 ppm measured after 7 days post fungal inoculation
[5] = test system: Pyricularia grisea; experiment: Fungicidal activity against Magnaporthe grisea spores inoculated on leaves of compound pre-treated 2 or 3 leaf-stage rice plants assessed as rice blast disease control level at 50 ppm measured after 7 days post fungal inoculation
[6] = test system: Puccinia recondita; experiment: Fungicidal activity against Puccinia recondita spores inoculated on leaves of compound pre-treated 1.5 leaf-stage wheat plants assessed as wheat brown rust disease control level at 25 ppm measured after 8 days post fungal inoculation
[7] = test system: Podosphaera xanthii; experiment: Fungicidal activity against Podosphaera xanthii (powdery mildew) spores inoculated on leaves of compound pre-treated 1.5 leaf-stage cucumber plants assessed as powdery mildew disease control level at 250 ppm measured after 7 days post fungal inoculation
[8] = test system: Botrytis cinerea; experiment: Fungicidal activity against Botryotinia fuckeliana spores inoculated on leaves of compound pre-treated seed-leaf stage kidney beans assessed as gray mold disease control level at 500 ppm measured after 4 days post fungal inoculation

Structure (SMILES)	Activity [1]	Activity [2]	Activity [3]	Activity [4]	Activity [5]	Activity [6]	Activity [7]	Activity [8]
CC1=C(C(=O)Nc2ccccc2-c2ccccc2)SCCO1	<95%	>=95%	<95%	>=50%	–	–	–	–
Cc1nc(C)c(C(=O)Nc2ccsc2C(C)CC(C)C)s1 (configuration not stated)	–	>=95%	–	>=50%	>=95%	>=95%	–	–
CCC(C)c1ccccc1NC(=O)c1cn(C)nc1C(F)(F)F (configuration not stated)	–	>=95%	<95%	>=50%	–	>=95%	–	–
CC(C)CC(C)c1ccccc1NC(=O)c1cn(C)nc1C(F)(F)F (configuration not stated)	–	>=95%	–	>=95%	>=95%	>=95%	–	–
CC(C)CC(C)c1sccc1NC(=O)c1cccnc1Cl (configuration not stated)	–	>=50%	–	>=95%	–	–	–	–
CC(C)CCc1sccc1NC(=O)c1cn(C)nc1C(F)(F)F	–	>=95%	–	>=50%	–	>=95%	–	–
Cn1cc(C(=O)Nc2ccsc2-c2ccccc2)c(C(F)(F)F)n1	<95%	>=95%	<95%	>=50%	–	–	–	–
Cc1ccsc1C(=O)Nc1ccsc1C(C)CC(C)C (configuration not stated)	–	>=95%	–	>=95%	>=95%	>=95%	–	–
CC1=C(C(=O)Nc2ccccc2-c2ccccc2)CCCO1	–	>=50%	<95%	>=95%	–	>=50%	–	–
CCCCC(C)c1sccc1NC(=O)c1cn(C)nc1C(F)(F)F (configuration not stated)	–	>=95%	>=95%	>=50%	–	>=95%	–	–
CC(C)CC(C)c1sccc1NC(=O)c1cn(C)nc1C(F)F (configuration not stated)	–	>=95%	–	>=95%	>=95%	>=95%	–	–
CCCCCC(C)c1sccc1NC(=O)c1cn(C)nc1C(F)(F)F (configuration not stated)	–	>=50%	<95%	>=50%	–	>=95%	–	–
Cc1nc(C)c(C(=O)Nc2ccccc2-c2ccccc2)s1	–	>=50%	<95%	–	–	–	>=95%	–
CCC(CC)c1sccc1NC(=O)c1cn(C)nc1C(F)(F)F	–	>=95%	<95%	–	–	>=50%	<95%	–
CCCC(C)c1sccc1NC(=O)c1cn(C)nc1C(F)(F)F (configuration not stated)	–	>=95%	<95%	>=95%	–	>=95%	–	–
CCC(C)C(C)c1sccc1NC(=O)c1cn(C)nc1C(F)(F)F (configuration not stated)	–	>=95%	–	>=95%	>=50%	>=95%	–	–
CCC(C)c1sccc1NC(=O)c1cn(C)nc1C(F)(F)F (configuration not stated)	–	>=95%	<95%	>=50%	–	>=95%	–	–
CCc1sccc1NC(=O)c1cn(C)nc1C(F)(F)F	–	–	–	–	–	–	–	>=95%
Cn1cc(C(=O)Nc2ccccc2-c2ccccc2)c(Cl)n1	<95%	–	<95%	–	–	–	<95%	<95%
Cc1nc(Cl)c(C(=O)Nc2ccccc2-c2ccccc2)s1	<95%	–	<95%	–	–	–	<95%	<95%
Cc1nn(C)cc1C(=O)Nc1ccsc1C(C)CC(C)C (configuration not stated)	–	>=95%	–	–	>=50%	>=95%	>=95%	–
Cn1cc(C(=O)Nc2ccccc2-c2ccccc2)c(C(F)(F)F)n1	>=95%	>=95%	<95%	>=50%	–	–	–	–
CC1=C(C(=O)Nc2ccsc2C(C)CC(C)C)CCCO1 (configuration not stated)	–	>=95%	–	>=50%	>=95%	>=95%	–	–

Structure (SMILES)	Activity [1]	Activity [2]	Activity [3]	Activity [4]	Activity [5]	Activity [6]	Activity [7]	Activity [8]
CC(C)CC(C)c1sccc1NC(=O)c1cn(C)nc1C(F)(F)F (configuration not stated) [PENTHIOPYRAD]	–	>=95%	–	>=95%	>=95%	>=95%	–	–
Cc1nc(C(F)(F)F)c(C(=O)Nc2ccsc2C(C)CC(C)C)s1 (configuration not stated)	–	>=95%	–	>=95%	–	>=95%	–	–
CC(C)CC(C)c1sccc1NC(=O)c1nccnc1Cl (configuration not stated)	–	>=95%	>=95%	–	–	>=95%	<95%	–
O=C(Nc1ccccc1-c1ccccc1)c1cccnc1Cl	–	>=50%	<95%	–	–	–	<95%	–
CC1CC(C)(C)c2cccc(NC(=O)c3cccnc3Cl)c21 (configuration not stated)	<95%	>=50%	<95%	–	–	–	<95%	–
Cc1nn(C)cc1C(=O)Nc1ccccc1-c1ccccc1	–	>=50%	<95%	–	–	–	<95%	–
O=C(Nc1ccccc1-c1ccccc1)c1nccnc1Cl	<95%	>=95%	<95%	–	–	–	>=95%	–
Cc1nc(C(F)(F)F)c(C(=O)Nc2ccccc2-c2ccccc2)s1	–	>=95%	>=95%	>=50%	–	–	–	–
Cc1nc(C(F)F)c(C(=O)Nc2ccccc2-c2ccccc2)s1	<95%	>=95%	>=95%	>=50%	–	–	–	–
O=C(Nc1ccccc1-c1ccccc1)c1ccccc1Cl	–	>=95%	<95%	–	–	–	<95%	–
Cc1occc1C(=O)Nc1ccsc1C(C)CC(C)C (configuration not stated)	–	>=95%	–	>=95%	>=95%	>=95%	–	–
CC(C)c1sccc1NC(=O)c1cn(C)nc1C(F)(F)F	–	>=95%	<95%	–	–	>=95%	>=95%	–
Cc1occc1C(=O)Nc1ccccc1-c1ccccc1	>=95%	>=95%	>=95%	–	–	–	<95%	–
CC1=C(C(=O)Nc2ccsc2C(C)CC(C)C)SCCO1 (configuration not stated)	–	>=95%	>=95%	–	–	>=95%	>=95%	–
Cc1nc(C(F)F)c(C(=O)Nc2ccsc2C(C)CC(C)C)s1 (configuration not stated)	–	>=95%	–	>=95%	>=95%	>=95%	–	–
Cc1ccsc1C(=O)Nc1ccccc1-c1ccccc1	<95%	>=95%	<95%	–	–	–	>=95%	–
CC1CC(C)(C)c2cccc(NC(=O)c3cn(C)nc3C(F)(F)F)c21 (configuration not stated)	–	>=95%	<95%	–	–	>=95%	<95%	–
CC(C)CC(C)c1sccc1NC(=O)c1ccccc1Cl (configuration not stated)	–	–	<95%	>=50%	–	>=95%	–	>=95%
CC(C)CCC(C)c1sccc1NC(=O)c1cn(C)nc1C(F)(F)F (configuration not stated)	–	–	>=95%	>=50%	–	>=95%	–	>=95%
CC(CC(C)(C)C)c1sccc1NC(=O)c1cn(C)nc1C(F)(F)F (configuration not stated)	–	–	<95%	>=95%	–	>=95%	–	<95%
CC(C)c1ccccc1NC(=O)c1cn(C)nc1C(F)(F)F	–	>=95%	<95%	–	–	>=95%	>=95%	–
CC(C)CC(C)c1sccc1NC(=O)c1cn(C)nc1Cl (configuration not stated)	–	>=95%	–	>=50%	>=50%	>=95%	–	–
CCC(C)CC(C)c1sccc1NC(=O)c1cn(C)nc1C(F)(F)F (configuration not stated)	–	>=50%	–	>=95%	>=95%	>=95%	–	–
